Measurements taken from patent US6511939B1, “Coronatine as an abscission agent” (priority 2001, dated 2003).

Legend:
Type in all cases: in vivo
Valencia orange [1] = test: Fruit pull-force reduction after spraying trees, Valencia orange; conditions: for % reduction in fruit pull force, day 5: 0.125% Kinetic, day 5, mean
Description: (§1) Data are the means of 10 replicate branches, with 10 fruit/branch. Bars above and below the means indicate standard error of the mean.
(§2) Solutions of COR were prepared that contained 200 mg/L or 300 mg/L of COR dissolved in water and 0.125% Kinetic®. The solution was sprayed until “run-off,” typically about 5 L/tree. […] Under field conditions, canopies should not be sprayed if rainfall is anticipated within 24 hours. For comparison purposes, 200 mg/L to 400 mg/L Ethrel® solutions and a 0.125% Kinetic® solution were applied to trees. After several days, usually 3 to 10, differences in fruit pull-force were measured between COR and other treatments and is an indication of fruit loosening ability. […] Differences in fruit drop were also measured by counting or weighing dropped fruit.

Valencia orange [2] = test: Fruit drop after spraying trees, Valencia orange; conditions: for % fruit drop, day 5: day 5, mean
Description: as §1, §2

Hamlin orange = test: Fruit pull-force reduction after spraying trees, Hamlin orange; conditions: for % reduction in fruit pull force, day 5: day 5, mean
Description: Data are the means of 6 replicate branches, with 10 fruit/branch. Bars above and below the means indicate standard error of the mean.
as §2

[3] = COR compositions 200 or 300 mg/L

| SMILES | % reduction in fruit pull force, day 5 (Valencia orange [1]; 200 mg/L spray to run-off) [%] | % reduction in fruit pull force, day 5 (Valencia orange [1]; 300 mg/L spray to run-off) [%] | reduction of fruit pull-force (Valencia orange [1]; [3]) | % fruit drop, day 5 (Valencia orange [2]; 200 mg/L spray to run-off) [%] | % fruit drop, day 5 (Valencia orange [2]; 300 mg/L spray to run-off) [%] | percentage of fruit drop as compared to Ethrel and the control (Valencia orange [2]; [3]) | % reduction in fruit pull force, day 5 (Hamlin orange; 200 mg/L spray to run-off) [%] | % reduction in fruit pull force, day 5 (Hamlin orange; 300 mg/L spray to run-off) [%] | reduction of fruit pull-force (Hamlin orange; [3]) |
| --- | --- | --- | --- | --- | --- | --- | --- | --- | --- |
| CC[C@H]1C=C(C(=O)N[C@@]2(C(=O)O)C[C@@H]2CC)[C@H]2CCC(=O)[C@H]2C1 [COR, Coronatine] | 96.1 | 96.3 | approximately 95% | 50 | 63.3 | substantially increased | 55 | 55.5 | approximately 95% |
| O=P(O)(O)CCCl [Ethrel ®, 2-chloroethyl phosphonic acid] | 71.7 |  |  | 13.3 |  |  | 64 |  |  |
